Laboratory results published in article PMC4793533 (BMC obesity, 2016).

Tests used:
[1] = Pharmacokinetics of radioactivity in plasma and blood after a single oral dose of [9-14C]-oleic acid, with or without formoline L112 pre-treatment; assay type: in vivo, female Göttingen minipigs; details: untreated minipigs (group A), single oral 10 mg/kg [9-14C]-oleic acid
Procedure: The study consisted of two treatment groups, each consisting of six female Göttingen minipigs. Group A served as the untreated group (control) and group B was pre-treated with polyglucosamine as follows; the animals of group B were dosed with 2 tablets of 500 mg formoline […] (1 g formoline […] in total) followed by approximately 10 ml of water via a syringe. The 2 tablets of polyglucosamine were inserted into 2 gelatine capsules. The minipigs were trained to eat these capsules. Thereafter, animals of both groups were allowed to drink water ad libitum. […] One animal of the control group A was inadequately dosed and was omitted from the experiment. The dosing capsules were prepared the day before the dose administration based on the bodyweight determined shortly before dosing and stored under nitrogen and protected from light at 2-10 °C. Immediately following dosing all animals received approximately 10 ml of water via a syringe. After 15 min, animals were allowed to drink water and eat their morning meal. This meal was eaten within a few minutes. The animals were housed in stainless steel metabolism cages under test conditions, 48 h prior to the experimental start date (dosing). Urine and faeces was collected at ambient temperature at 24 h time intervals, starting at 2 days prior to dosing and ending at 144 h post-dose. At each collection period, the cage was rinsed with 100 mL demi-water. […] The cannula was rinsed with physiological saline after each blood sampling. After the last blood sampling of the day the cannula was filled with 3 % poly vinyl pyrrolidone (PVP) and heparin, and closed with a lid. Subsamples of whole blood were collected for analysis and the remaining blood was used for preparation of plasma by centrifugation for 10 min at 2000 g. At the end of the experiment, the cages were rinsed thoroughly with water/ethanol/Triton X-100 (100/100/1; v/v/v). The minipigs were intravenously anaesthetized via the catheter with 60 mg sodium-pentobarbital per kg bodyweight. Next, the animals were sacrificed by exsanguination from the carotid artery. At sacrifice, the complete liver and contents of the gastrointestinal tract were collected. Prior to analysis of radioactivity, the faeces, liver and contents of the gastrointestinal tract were homogenized using an ultrathurrax. Radioactivity in all samples was determined by liquid scintillation counting on a Tri-Carb 3100TR liquid scintillation counter using QuantaSmartTM software. All counts were converted to DPM using tSIE/AEC (transformed Spectral Index of external standards coupled to Automatic Efficiency Correction). Radioactivity in faeces, blood and liver tissue was determined by combustion analysis using a Packard Sample Oxidizer System 307. The CO2 formed was mixed with CarbosorbTM and PermafluorTM and measured by LSC. Kinetic analysis of radioactivity (blood/plasma) was performed using WinNonlin® 6.3 applying non-compartmental model analysis. The following kinetic parameters were calculated where the data allow: Cmax, Tmax, half-life (t1/2), the volume of distribution, clearance, the Area under the concentration-time curve (AUC) (or AUC0-n, AUC0-∞) and the Mean Residence Time (MRT). Statistical analysis was assessed by using Mann-Whitney U-test (non-parametric test) using the Brightstat.

[2] = Recovery of radioactivity in excreta (urine, faeces, cage wash), liver and gastrointestinal tract contents; assay type: in vivo, female Göttingen minipigs
Procedure: The study consisted of two treatment groups, each consisting of six female Göttingen minipigs. Group A served as the untreated group (control) and group B was pre-treated with polyglucosamine as follows; the animals of group B were dosed with 2 tablets of 500 mg formoline […] (1 g formoline […] in total) followed by approximately 10 ml of water via a syringe. The 2 tablets of polyglucosamine were inserted into 2 gelatine capsules. The minipigs were trained to eat these capsules. Thereafter, animals of both groups were allowed to drink water ad libitum. […] The dosing capsules were prepared the day before the dose administration based on the bodyweight determined shortly before dosing and stored under nitrogen and protected from light at 2-10 °C. Immediately following dosing all animals received approximately 10 ml of water via a syringe. After 15 min, animals were allowed to drink water and eat their morning meal. […] The animals were housed in stainless steel metabolism cages under test conditions, 48 h prior to the experimental start date (dosing). Urine and faeces was collected at ambient temperature at 24 h time intervals, starting at 2 days prior to dosing and ending at 144 h post-dose. At each collection period, the cage was rinsed with 100 mL demi-water. […] The cannula was rinsed with physiological saline after each blood sampling. After the last blood sampling of the day the cannula was filled with 3 % poly vinyl pyrrolidone (PVP) and heparin, and closed with a lid. Subsamples of whole blood were collected for analysis and the remaining blood was used for preparation of plasma by centrifugation for 10 min at 2000 g. At the end of the experiment, the cages were rinsed thoroughly with water/ethanol/Triton X-100 (100/100/1; v/v/v). The minipigs were intravenously anaesthetized via the catheter with 60 mg sodium-pentobarbital per kg bodyweight. Next, the animals were sacrificed by exsanguination from the carotid artery. At sacrifice, the complete liver and contents of the gastrointestinal tract were collected. Prior to analysis of radioactivity, the faeces, liver and contents of the gastrointestinal tract were homogenized using an ultrathurrax. Radioactivity in all samples was determined by liquid scintillation counting on a Tri-Carb 3100TR liquid scintillation counter using QuantaSmartTM software. All counts were converted to DPM using tSIE/AEC (transformed Spectral Index of external standards coupled to Automatic Efficiency Correction). Radioactivity in faeces, blood and liver tissue was determined by combustion analysis using a Packard Sample Oxidizer System 307. The CO2 formed was mixed with CarbosorbTM and PermafluorTM and measured by LSC.

[3] = cited from earlier work
[4] = untreated minipigs, not a mass-balance study
[5] = up to 144 h post-dose, group A untreated, mean ± SD

**Q.** Which results are given for `CCCCCCCC/C=[14CH]\CCCCCCCC(=O)O` [[9-^14C]-oleic acid]?
**A.** AUC(0-12h) ([1]; blood): 40.0 ± 4.8 µg·h/g; AUC(0-24h) ([1]; blood): 61.7 ± 13.1 µg·h/g; AUC(0-48h) ([1]; blood): 88.3 ± 19.0 µg·h/g; AUC(0-60h) ([1]; blood): 97.2 ± 20.6 µg·h/g; AUC(0-72h) ([1]; blood): 105 ± 22 µg·h/g; AUCall(0-144h) ([1]; blood): 139 ± 25 µg·h/g; Cl ([1]; blood): 48.4 ± 7.9 g/h/kg; Cmax ([9-14C]-oleic acid and/or its metabolites) ([1]; blood): 8.5 ± 2.2 µg/g; MRTlast ([1]; blood): 43.6 ± 3.1 h; Tmax ([9-14C]-oleic acid and/or its metabolites) ([1]; blood): 4 ± 3 h; Vz ([1]; blood): 8860 ± 1848 g/kg; AUC(0-12h) ([1]; plasma): 65.6 ± 6.0 µg·h/g; AUC(0-24h) ([1]; plasma): 98.4 ± 17.2 µg·h/g; AUC(0-48h) ([1]; plasma): 136 ± 28 µg·h/g; AUC(0-60h) ([1]; plasma): 148 ± 31 µg·h/g; AUC(0-72h) ([1]; plasma): 157 ± 32 µg·h/g; AUCall(0-144h) ([1]; plasma): 190 ± 38 µg·h/g; Cl ([1]; plasma): 40.7 ± 5.5 g/h/kg; Cmax ([9-14C]-oleic acid and/or its metabolites) ([1]; plasma): 14.1 ± 3.6 µg/g; MRTlast ([1]; plasma): 35.9 ± 1.8 h; Tmax ([9-14C]-oleic acid and/or its metabolites) ([1]; plasma): 4 ± 3 h; Vz ([1]; plasma): 7008 ± 2962 g/kg; Recovery of radioactivity in urine ([2]; 0–24 h, group A untreated, mean ± SD): 0.79 ± 0.05 % of the applied dose; Recovery of radioactivity in urine ([2]; 24–48 h, group A untreated, mean ± SD): 0.28 ± 0.10 % of the applied dose; Recovery of radioactivity in urine ([2]; 48–72 h, group A untreated, mean ± SD): 0.09 ± 0.08 % of the applied dose; Recovery of radioactivity in urine ([2]; 72–96 h, group A untreated, mean ± SD): 0.08 ± 0.05 % of the applied dose; Recovery of radioactivity in urine ([2]; 96–120 h, group A untreated, mean ± SD): 0.05 ± 0.03 % of the applied dose; Recovery of radioactivity in urine ([2]; 120–144 h, group A untreated, mean ± SD): 0.03 ± 0.00 % of the applied dose; Recovery of radioactivity in urine ([2]; -24–0 h (pre-dose), group A untreated, mean ± SD): 0.01 ± 0.00 % of the applied dose; Recovery of radioactivity in urine ([2]; -48–24 h (pre-dose), group A untreated, mean ± SD): 0.00 ± 0.01 % of the applied dose; Recovery of radioactivity in Cagewash ([2]; group A untreated, mean ± SD): 0.07 ± 0.07 % of the applied dose; Recovery of radioactivity in GI-tract contents at sacrifice (144 h post-dose) ([2]; group A untreated, mean ± SD): 0.08 ± 0.04 % of the applied dose; Recovery of radioactivity in Liver at sacrifice (144 h post-dose) ([2]; group A untreated, mean ± SD): 0.37 ± 0.07 % of the applied dose; Total excreted (sum urine, faeces, cagewash) ([2]; group A untreated, mean ± SD): 7.90 ± 3.13 % of the applied dose; Overall recovery of the dosed amount of radioactivity (based on the AUC0-12h) [2, 4]: 34.7%; Overall recovery of the dosed amount of radioactivity (based on the Cmax) [2, 4]: 13.9%; Recovery of radioactivity in faeces, Total [2, 5]: 6.51 ± 2.88 % of the applied dose; Recovery of radioactivity in urine, Total [2, 5]: 1.33 ± 0.20 % of the applied dose

**Q.** Which “Excreted in the faeces” value ([3]; 31 test persons with normal fat assimilation, oral doses, radioactively labelled, after 6 days) does the source give for `CCCCCCCC/C=C\CCCCCCCC(=O)O` [oleic acid] here?
**A.** The value was “less than 10%”.

**Q.** And the “Absorption after oral administration” value ([3]; untreated subjects)?
**A.** The value was “absorbed practically completely”.
